Source: US20200179361A1, “COMPOSITIONS, METHODS OF USE, AND METHODS OF TREATMENT” (TORREY PINES INSTITUTE FOR MOLECULAR STUDIES, priority 2017, published 2020)
Entries after “also recorded” stand apart in the source; their conditions may differ.

How the values were obtained:
[1] = smoking cessation; cited from earlier work
[2] = pharmacokinetics, blood content and blood brain barrier penetration after sc administration; settings: rats, 2.0 mg/kg sc
Male Sprague Dawley rats = settings: rat, in vivo
Protocol: Male Sprague Dawley rats obtained from Charles River (Portage, Mich.) and weighing 200-225 g at their arrival were used in this study. Rats were housed in groups of two in a room with a reverse 12 h light/12 h dark cycle (lights off at 07:30 AM). All experiments were conducted during the dark phase of the cycle. Animals were acclimatized for 7 days with water and chow (Teklad Diets, Madison, Wis.) and handled for 3 times before the experiments were started. Throughout all operant procedures, rats were food restricted (received 20 g of chow daily) with water freely accessible.
5 was dissolved in a vehicle of 0.9% saline and injected subcutaneously at doses of (0.0, 0.3, 1.0 mg/kg). The injection volume was 1 ml/kg. […] (−)-Nicotine hydrogen tartrate salt and alcohol were purchased from Sigma (St. Louis, Mo.). Alcohol was diluted to a concentration of 10% v/v in water and made available orally. Nicotine solution for i.v. injection (30 micrograms/kg/0.1 ml infusion) was obtained by dissolving the salt in 0.9% saline and the pH adjusted to 7.0-7.4 with 3 M sodium hydroxide. Nicotine self-administration dose is reported as free base concentration.
The self-administration boxes consisted of operant conditioning chambers (Med Associates, Inc., St. Albans, Vt.) enclosed in lit, sound attenuating, ventilated environmental cubicles. […]

SMILES	cessation rates in most clinical trials [1]	time to maximal concentration in blood and brain [2] [min]	nicotine self-administration analysed in 30-min intervals (Male Sprague Dawley rats)
CC(NC(C)(C)C)C(=O)c1cccc(Cl)c1 (stereo not shown) [bupropion]	15-25%		
C[C@H]1CNC(=N)N1CCc1cccnc1 [Compound 5, (S)-5-Methyl-1-(2-(pyridin-3-yl)ethyl)imidazolidin-2-imine]		≤ 10	decreased nicotine self-administration during the first 30 min but not during the remaining 90-min period; also recorded: reducing nicotine self-administration only in the first 30 min
c1cnc2cc3c(cc2n1)[C@@H]1CNC[C@H]3C1 [varenicline]	23-40%		
